In patent US9815819B2, “Complement pathway modulators and uses thereof” (priority 2012, dated 2017) one finds IC50 data, which are given here for 25 compounds.

One assay deals with Recombinant human factor D (Homo sapiens (Human), UniProt P00746). Description: Human Complement Factor D Assay: Method 1. It counts as biochemical. The note with it: Factor D inhibition, Method 1: 10 nM factor D, 1 hour incubation with compound at room temperature, substrate Z-Lys-thiobenzyl, fluorescence readout; read-out: IC50.
Recombinant human factor D, sequence (P00746 26-253): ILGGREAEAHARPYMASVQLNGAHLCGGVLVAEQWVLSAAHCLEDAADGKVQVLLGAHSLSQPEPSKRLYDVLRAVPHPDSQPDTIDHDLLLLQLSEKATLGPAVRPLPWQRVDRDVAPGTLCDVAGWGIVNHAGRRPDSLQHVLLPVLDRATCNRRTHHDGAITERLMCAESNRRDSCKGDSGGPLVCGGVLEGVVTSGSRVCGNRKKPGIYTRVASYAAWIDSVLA
Description: Recombinant human factor D (expressed in E. coli and purified using standard methods) at 10 nM concentration is incubated with test compound at various concentrations for 1 hour at room temperature in 0.1 M Hepes buffer, pH 7.5, containing 1 mM MgCl2, 1 M NaCl and 0.05% CHAPS. […] IC50 values are calculated from percentage of inhibition of complement factor D-activity as a function of test compound concentration.
Turning to `NC(=O)c1nn(CC(=O)N2[C@@H]3C[C@@H]3C[C@H]2C(=O)N[C@@H]2C[C@H]2c2ccccc2)c2cnccc12` [Example 9, 1-{2-Oxo-2-[(1R,3S,5R)-3-((1R,2S)-2-phenyl-cyclopropylcarbamoyl)-2-aza-bicyclo[3.1.0]hex-2-yl]-ethyl}-1H-pyrazolo[3,4-c]pyridine-3-carboxylic acid amide], the IC50 (as a rule, the concentration at which inhibition is half-maximal) stood at 0.065 µM. `CC(=O)c1nn(CC(=O)N2[C@@H]3C[C@@H]3C[C@H]2C(=O)N[C@H]2C[C@@H]2c2cccc(Cl)c2)c2ncccc12` [Example 55, (1R,3S,5R)-2-[2-(3-acetyl-pyrazolo[3,4-b]pyridin-1-yl)-acetyl]-2-aza-bicyclo[3.1.0]hexane-3-carboxylic acid[(1S,2R)-2-(3-chloro-phenyl)-cyclopropyl]-amide]: the IC50 was found to be 1.57 µM. On to `NC(=O)c1nn(CC(=O)N2[C@@H]3C[C@@H]3C[C@H]2C(=O)N[C@@H]2C[C@H]2c2ccccc2)c2ccccc12` [Example 12, 1-{2-Oxo-2-[(1R,3S,5R)-3-((1R,2S)-2-phenyl-cyclopropylcarbamoyl)-2-aza-bicyclo[3.1.0]hex-2-yl]-ethyl}-1H-indazole-3-carboxylic acid amide], for which the IC50 turned out to be 0.06 µM.

Take `NC(=O)c1nn(CC(=O)N2C[C@H](F)C[C@H]2C(=O)N[C@@H]2C[C@H]2c2ccccc2)c2ncccc12` [Example 17, 1-{2-[(2S,4R)-4-Fluoro-2-((1R,2S)-2-phenyl-cyclopropylcarbamoyl)-pyrrolidin-1-yl]-2-oxo-ethyl}-1H-pyrazolo[3,4-b]pyridine-3-carboxylic acid amide]: the IC50 is 0.117 µM. Consider `CC(=O)c1nn(CC(=O)N2[C@@H]3C[C@@H]3C[C@H]2C(=O)N[C@@H]2C[C@H]2c2cccc(Cl)c2)c2ncccc12` [Example 54, (1R,3S,5R)-2-[2-(3-Acetyl-pyrazolo[3,4-b]pyridin-1-yl)-acetyl]-2-aza-bicyclo[3.1.0]hexane-3-carboxylic acid[(1R,2S)-2-(3-chloro-phenyl)-cyclopropyl]-amide], for which the IC50 is 0.225 µM. For `CC(=O)c1nn(CC(=O)N2[C@@H]3C[C@@H]3C[C@H]2C(=O)N[C@@H]2C[C@H]2c2cccc(Cl)c2F)c2ncccc12` [Example 56, (1R,3S,5R)-2-[2-(3-Acetyl-pyrazolo[3,4-b]pyridin-1-yl)-acetyl]-2-aza-bicyclo[3.1.0]hexane-3-carboxylic acid [(1R,2S)-2-(3-chloro-2-fluoro-phenyl)-cyclopropyl]-amide], the IC50 is 0.109 µM.

As for `Cc1cc2c(C(N)=O)nn(CC(=O)N3[C@@H]4C[C@@H]4C[C@H]3C(=O)N[C@@H]3C[C@H]3c3ccccc3Cl)c2cn1` [Example 73, 1-(2-{(1R,3S,5R)-3-[(1R,2S)-2-(2-Chloro-phenyl)-cyclopropylcarbamoyl]-2-aza-bicyclo[3.1.0]hex-2-yl}-2-oxo-ethyl)-5-methyl-1H-pyrazolo[3,4-c]pyridine-3-carboxylic acid amide], the half-maximal inhibitory concentration (IC50) stood at 0.045 µM. For the compound `CC(=O)c1nn(CC(=O)N2[C@@H]3C[C@@H]3C[C@H]2C(=O)N[C@@H]2C[C@H]2c2ccccc2Cl)c2cnccc12` [Example 65, (1R,3S,5R)-2-[2-(3-Acetyl-pyrazolo[3,4-c]pyridin-1-yl)-acetyl]-2-aza-bicyclo[3.1.0] hexane-3-carboxylic acid [(1R,2S)-2-(2-chloro-phenyl)-cyclopropyl]-amide], the IC50 is 0.03 µM. Take `NC(=O)c1nn(CC(=O)N2[C@@H]3C[C@@H]3C[C@H]2C(=O)N[C@@H]2C[C@@]2(F)c2ccccc2)c2ccc(F)cc12` [Example 26, 5-Fluoro-1-{2-[(1R,3S,5R)-3-((1R,2R)-2-fluoro-2-phenyl-cyclopropylcarbamoyl)-2-aza-bicyclo[3.1.0]hex-2-yl]-2-oxo-ethyl}-1H-indazole-3-carboxylic acid amide]: the IC50 came out at 0.06 µM. For `NC(=O)c1nn(CC(=O)N2[C@@H]3C[C@@H]3C[C@H]2C(=O)NC2CC2c2ccc(F)cc2F)c2ccccc12` (single isomer, unassigned) [Example 77], the IC50 was determined as 0.64 µM. As to `NC(=O)c1nn(CC(=O)N2[C@@H]3C[C@@H]3C[C@H]2C(=O)NC2CC2(F)c2ccccc2F)c2ccccc12` (single isomer, unassigned) [Example 52], the IC50 was 0.367 µM. With `NC(=O)c1nn(CC(=O)N2[C@@H]3C[C@@H]3C[C@H]2C(=O)N[C@@H]2C[C@@]2(F)c2ccccc2)c2ccccc12` [Example 39, 1-{2-[(1R,3S,5R)-3-((1R,2R)-2-fluoro-2-phenyl-cyclopropylcarbamoyl)-2-aza-bicyclo[3.1.0]hex-2-yl]-2-oxo-ethyl}-1H-indazole-3-carboxylic acid amide], the IC50 is 0.048 µM. As to `Cc1cc2c(C(N)=O)nn(CC(=O)N3[C@@H]4C[C@@H]4C[C@H]3C(=O)N[C@@H]3C[C@H]3c3ccccc3F)c2cn1` [Example 70, 1-(2-{(1R,3S,5R)-3-[(1R,2S)-2-(2-Fluoro-phenyl)-cyclopropylcarbamoyl]-2-aza-bicyclo[3.1.0]hex-2-yl}-2-oxo-ethyl)-5-methyl-1H-pyrazolo[3,4-c]pyridine-3-carboxylic acid amide], the IC50 amounted to 0.125 µM. For the compound `NC(=O)c1nn(CC(=O)N2C[C@H](F)C[C@H]2C(=O)N[C@H]2C[C@@H]2c2ccccc2F)c2cnccc12` [Example 41, 1-(2-{(2S,4R)-4-Fluoro-2-[(1S,2R)-2-(2-fluoro-phenyl)-cyclopropylcarbamoyl]-pyrrolidin-1-yl}-2-oxo-ethyl)-1H-pyrazolo[3,4-c]pyridine-3-carboxylic acid amide], the IC50 was determined as 1.19 µM. As to `CC(=O)c1nn(CC(=O)N2[C@H](C(=O)N[C@@H]3C[C@H]3c3ccccc3)C[C@@]3(CO)C[C@@H]23)c2ncccc12` [Example 28, (1R,3S,5S)-2-[2-(3-Acetyl-pyrazolo[3,4-b]pyridin-1-yl)-acetyl]-5-hydroxymethyl-2-aza-bicyclo[3.1.0]hexane-3-carboxylic acid((1R,2S)-2-phenyl-cyclopropyl)-amide], the IC50 stood at 0.172 µM.

With `CCc1cc2c(C(N)=O)nn(CC(=O)N3[C@@H]4C[C@@H]4C[C@H]3C(=O)N[C@@H]3C[C@H]3c3ccccc3)c2cn1` [Example 19, 5-Ethyl-1-{2-oxo-2-[(1R,3S,5R)-3-((1R,2S)-2-phenyl-cyclopropylcarbamoyl)-2-aza-bicyclo[3.1.0]hex-2-yl]-ethyl}-1H-pyrazolo[3,4-c]pyridine-3-carboxylic acid amide], the IC50 turned out to be 0.031 µM. For the compound `NC(=O)c1nn(CC(=O)N2[C@@H]3C[C@@H]3C[C@H]2C(=O)N[C@@H]2C[C@H]2c2ccccc2Cl)c2cnccc12` [Example 67, 1-(2-{(1R,3S,5R)-3-[(1R,2S)-2-(2-Chloro-phenyl)-cyclopropylcarbamoyl]-2-aza-bicyclo[3.1.0]hex-2-yl}-2-oxo-ethyl)-1H-pyrazolo[3,4-c]pyridine-3-carboxylic acid amide], the IC50 is 0.035 µM.

For `CC(=O)c1nn(CC(=O)N2[C@@H]3C[C@@H]3C[C@H]2C(=O)NC2CC2c2ccc(C)c(C)c2)c2cnccc12` (stereo partly drawn) [Example 34, (1R,3S,5R)-2-[2-(3-Acetyl-pyrazolo[3,4-c]pyridin-1-yl)-acetyl]-2-aza-bicyclo[3.1.0] hexane-3-carboxylic acid [2-(3,4-dimethyl-phenyl)-cyclopropyl]-amide], the IC50 is 0.112 µM.

On to `CC(=O)c1nn(CC(=O)N2[C@@H]3C[C@@H]3C[C@H]2C(=O)N[C@@H]2C[C@H]2c2ccccc2)c2ccccc12` [Example 2, (1R,3S,5R)-2-[2-(3-Acetyl-indazol-1-yl)-acetyl]-2-aza-bicyclo[3.1.0] hexane-3-carboxylic acid ((1R,2S)-2-phenyl-cyclopropyl)-amide], for which the IC50 was 0.029 µM. On the same count and under the same terms, in the case of `CCc1cc2c(C(N)=O)nn(CC(=O)N3[C@@H]4C[C@@H]4C[C@H]3C(=O)N[C@@H]3C[C@H]3c3ccccc3Cl)c2cn1` [Example 68, 1-(2-{(1R,3S,5R)-3-[(1R,2S)-2-(2-Chloro-phenyl)-cyclopropylcarbamoyl]-2-aza-bicyclo[3.1.0]hex-2-yl}-2-oxo-ethyl)-5-ethyl-1H-pyrazolo[3,4-c]pyridine-3-carboxylic acid amide] it was 0.037 µM; in that of `CC(=O)c1nn(CC(=O)N2[C@@H]3C[C@@H]3C[C@H]2C(=O)NC2CCC(c3ccccc3)CC2)c2cnccc12` (stereo partly drawn) [Example 37, (1R,3S,5R)-2-[2-(3-Acetyl-pyrazolo[3,4-c]pyridin-1-yl)-acetyl]-2-aza-bicyclo[3.1.0] hexane-3-carboxylic acid (4-phenyl-cyclohexyl)-amide], 1.05 µM. As for `CC(=O)c1nn(CC(=O)N2[C@@H]3C[C@@H]3C[C@H]2C(=O)N[C@H]2C[C@@H]2c2ccccc2)c2cnccc12` [Example 4, (1R,3S,5R)-2-[2-(3-Acetyl-pyrazolo[3,4-c]pyridin-1-yl)-acetyl]-2-aza-bicyclo[3.1.0] hexane-3-carboxylic acid ((1S,2R)-2-phenyl-cyclopropyl)-amide], the half-maximal inhibitory concentration (IC50) was found to be 0.702 µM. The same measure, in the same setting: in the case of `NC(=O)c1nn(CC(=O)N2[C@@H]3C[C@@H]3C[C@H]2C(=O)N[C@@H]2C[C@H]2c2ccccc2)c2ccncc12` [Example 14, 1-{2-Oxo-2-[(1R,3S,5R)-3-((1R,2S)-2-phenyl-cyclopropylcarbamoyl)-2-aza-bicyclo[3.1.0]hex-2-yl]-ethyl}-1H-pyrazolo[4,3-c]pyridine-3-carboxylic acid amide] it was 0.118 µM; in that of `CC(=O)c1nn(CC(=O)N2[C@@H]3C[C@@H]3C[C@H]2C(=O)N[C@@H]2C[C@@]2(F)c2ccccc2)c2cnccc12` [Example 46, (1R,3S,5R)-2-[2-(3-Acetyl-pyrazolo[3,4-c]pyridin-1-yl)-acetyl]-2-aza-bicyclo[3.1.0] hexane-3-carboxylic acid ((1R,2R)-2-fluoro-2-phenyl-cyclopropyl)-amide], 0.032 µM.

The assay is the same for the next values; noted with them: IC50 (μM), Factor D inhibition, Method 1: 10 nM factor D, 1 hour incubation with compound at room temperature, substrate Z-Lys-thiobenzyl, fluorescence readout.
On to `NC(=O)c1nn(CC(=O)N2[C@@H]3C[C@@H]3C[C@H]2C(=O)NC2CCCC(c3ccccc3)C2)c2ccccc12` (single isomer, unassigned) [Example 79], for which the IC50 turned out to be 0.114 µM.
